What was measured:
[1] = tested on: gamma-glutamyl transpeptidase and acylase I; assay: Assay IV: metabolism of conjugate by purified transpeptidase and acylase; format: in vitro ADME
Protocol: […] The resulting suspension, diluted with buffer, was incubated in the presence of the Ex. #859 conjugate at 37° C. At various times aliquots were removed, deproteinized with an equal volume of cold trichloroacetic acid (25%) and centrifuged. The supernatant was injected onto a C-18 reverse-phase HPLC column and eluted isocratically with a mixture of acetonitrile and water (20:80 v/v) containing trifluoroacetic acid (0.05%). Eluted compounds were monitored by absorbance at 254 nm and compared to standards run under identical conditions. In the assay using pure kidney enzyme homogenate, the Ex. #859 conjugate was also incubated under the same conditions as described except that 5 mg of gamma-glutamyl transpeptidase (Sigma, 23 units/mg) and 10 mg of acylase I (Sigma, 4800 units/mg) were added in place of the homogenate. Analysis by HPLC was performed in a manner identical to that used for the kidney homogenate experiment.

Male mongrel dogs = assay: Assay XII: acute i.v. effects on mean arterial pressure and renal blood flow in anesthetized dogs; format: in vivo, dog
Protocol: This experiment was run to determine the renal selectivity of conjugate of the invention in dogs. Male mongrel dogs (15-20 kg/n=8; Antech, Inc., Barnhard, Mo.) were anesthetized with sodium pentobarbital (30 mg/kg as i.v. bolus, and 4-6 mg/kg/hr infusion) and catheters were placed in the femoral veins for compound injection or pentobarbital infusion, and the femoral artery for arterial pressure recording. An electromagnetic flow probe (Carolina Medical Electronics, Inc., King, N.C.) was placed around the left renal artery for measurement of renal blood flow. Renal blood flow and arterial pressure were recorded on a Gould chart recorder. After surgery, 20-30 minutes were allowed for variables to stabilize. […] Variables were monitored for the next three hours. Results are shown in Table XXXIV and FIGS. 14 and 15.

[2] = tested on: DOCA hypertensive micropigs; assay: Assay XIV: chronic in vivo effects in DOCA hypertensive micropigs; design: species or system micropig; conditions: for Mean arterial pressure: 5 mg/kg/hr infusion
Protocol: This study examines the efficacy of Ex. #859 in deoxycorticosterone acetate ([…]) hypertensive micropigs (Charles River; 6 months of age). Micropigs were made hypertensive by implanting subcutaneously DOCA strips (100 mg/kg) under isoflurane anesthesia. Hypertension stabilizes after one month. Mean arterial pressure was measured using a Gould chart recorder and Statham P23dB transducers. After one month Ex. #859 conjugate was infused for three days at 5 mg/kg/hr).

conscious SHR = assay: Assay XIII: antihypertensive experiments in conscious SHR (renal denervation, bulbocapnine); format: in vivo, rat
Protocol: For antihypertensive experiments, male SHR (11-13 weeks of age; Harlan Sprague-Dawley, Inc.; Indianapolis, Ind.) were habituated for 3-4 days in individual experimental cages, which became their home cages for the duration of the study. Five to seven days before experimentation, SHR were anesthetized with chloral hydrate (400 mg/kg; Sigma Chemical Co., St. Louis, Mo.) and catheters were implanted into a femoral artery and vein. The catheters were led to the back of the neck, exteriorized, and channeled through a tether and swivel system (Alice King Chatham, Los Angeles, Calif.). Surgical renal denervation was performed as above. […] In separate groups of conscious SHR, Ex. #859 (5 mg/kg/hr, n=6) was infused alone, Ex. #859 (5 mg/kg/hr, n=6) was coinfused with bulbocapnine (100 μg/kg/min), or Ex. #859 (10 mg/kg/hr, n=6) was infused 5-7 days after surgical renal denervation. Surgical renal denervation was performed as described above. After a one hour control measure of mean arterial pressure, compounds were infused for four hours and mean arterial pressure was measured continuously.

anesthetized dog = assay: Assay XI: intrarenal administration of fusaric acid in anesthetized dogs (MAP, RBF, UNaV); format: in vivo
[3] = 7 mg/kg, 1 hour after injection
[4] = 7 mg/kg, 2 hour after injection
[5] = 7 mg/kg, 3 hour after injection
[6] = 20 mg/kg i.v., 1 hour after injection
[7] = 20 mg/kg i.v., 2 hour after injection
[8] = 20 mg/kg i.v., 3 hour after injection
[9] = 60 mg/kg i.v., 1 hour after injection
[10] = 60 mg/kg i.v., 2 hour after injection
[11] = 60 mg/kg i.v., 3 hour after injection
[12] = Dog #1, intrarenal infusion 1.25 mg/kg/min
[13] = Dog #2, intrarenal infusion 0.75 mg/kg/min
[14] = anesthetized dog, bolus intrarenal 0.5, 1.0 and 5.0 mg/kg

## CCCCc1ccc(C(=O)NNC(=O)CCC(NC(C)=O)C(=O)O)nc1 [Ex. #859, N-acetyl-L-glutamic acid, 5-[(5-butyl-2-pyridinyl)-carbonyl]hydrazide]
[1]; 3 h, pH 7.4
  Fusaric Acid formed from conjugate: 0.00 µg/mL
[1]; 3 h, pH 8.1
  Fusaric Acid formed from conjugate: 0.00 µg/mL
[1]; 24 h, pH 7.4
  Fusaric Acid formed from conjugate: 2.56 µg/mL
[1]; 24 h, pH 8.1
  Fusaric Acid formed from conjugate: 1.12 µg/mL
[1]; 72 h, pH 7.4
  Fusaric Acid formed from conjugate: 12.15 µg/mL
[1]; 72 h, pH 8.1
  Fusaric Acid formed from conjugate: 4.46 µg/mL
[1]; 96 h, pH 7.4
  Fusaric Acid formed from conjugate: 15.44 µg/mL
[1]; 96 h, pH 8.1
  Fusaric Acid formed from conjugate: 5.22 µg/mL
[1]; 120 h, pH 7.4
  Fusaric Acid formed from conjugate: 18.75 µg/mL
[1]; 120 h, pH 8.1
  Fusaric Acid formed from conjugate: 6.55 µg/mL
[1]; purified gamma-glutamyl transpeptidase and acylase I
  species present after incubation: only fusaric acid and the unreacted compound being present
Male mongrel dogs; [3]
  Mean arterial pressure: 116 ± 5 mmHg
  Renal Blood Flow: 92 ± 5 mL/min
Male mongrel dogs; [4]
  Mean arterial pressure: 113 ± 4 mmHg
  Renal Blood Flow: 111 ± 14 mL/min
Male mongrel dogs; [5]
  Mean arterial pressure: 114 ± 4 mmHg
  Renal Blood Flow: 118 ± 23 mL/min
Male mongrel dogs; 7 mg/kg, time zero
  Mean arterial pressure: 114 ± 6 mmHg
  Renal Blood Flow: 92 ± 5 mL/min
Male mongrel dogs; [6]
  Mean arterial pressure: 124 ± 2 mmHg
  Renal Blood Flow: 107 ± 14 mL/min
Male mongrel dogs; [7]
  Mean arterial pressure: 125 ± 3 mmHg
  Renal Blood Flow: 122 ± 20 mL/min
Male mongrel dogs; [8]
  Mean arterial pressure: 125 ± 4 mmHg
  Renal Blood Flow: 126 ± 24 mL/min
Male mongrel dogs; 20 mg/kg i.v., time zero
  Mean arterial pressure: 120 ± 3 mmHg
  Renal Blood Flow: 88 ± 11 mL/min
Male mongrel dogs; [9]
  Mean arterial pressure: 124 ± 1 mmHg
  Renal Blood Flow: 145 ± 21 mL/min
Male mongrel dogs; [10]
  Mean arterial pressure: 126 ± 3 mmHg
  Renal Blood Flow: 168 ± 28 mL/min
Male mongrel dogs; [11]
  Mean arterial pressure: 120 ± 4 mmHg
  Renal Blood Flow: 176 ± 32 mL/min
Male mongrel dogs; 60 mg/kg i.v., time zero
  Mean arterial pressure: 123 ± 3 mmHg
  Renal Blood Flow: 131 ± 21 mL/min
[2]; Day 1
  Mean arterial pressure: 151 ± 4
[2]; Day 2
  Mean arterial pressure: 132 ± 4
[2]; Day 3
  Mean arterial pressure: 119 ± 3
[2]; conscious DOCA hypertensive micropigs, infusion 5 mg/kg/hr for three days
  effect on mean arterial pressure: normalized mean arterial pressure
Conscious SHR; BULBO: 5 mg/kg/hr coinfused with bulbocapnine 100 μg/kg/min, 0 hours
  Mean arterial pressure: 168 ± 8
Conscious SHR; BULBO: 5 mg/kg/hr coinfused with bulbocapnine 100 μg/kg/min, 1 hour
  Mean arterial pressure: 158 ± 6
Conscious SHR; BULBO: 5 mg/kg/hr coinfused with bulbocapnine 100 μg/kg/min, 2 hours
  Mean arterial pressure: 148 ± 5
Conscious SHR; BULBO: 5 mg/kg/hr coinfused with bulbocapnine 100 μg/kg/min, 3 hours
  Mean arterial pressure: 140 ± 7
Conscious SHR; BULBO: 5 mg/kg/hr coinfused with bulbocapnine 100 μg/kg/min, 4 hours
  Mean arterial pressure: 140 ± 5
Conscious SHR; DNX: 10 mg/kg/hr after surgical renal denervation, 0 hours
  Mean arterial pressure: 157 ± 3
Conscious SHR; DNX: 10 mg/kg/hr after surgical renal denervation, 1 hour
  Mean arterial pressure: 155 ± 4
Conscious SHR; DNX: 10 mg/kg/hr after surgical renal denervation, 2 hours
  Mean arterial pressure: 53 ± 4
Conscious SHR; DNX: 10 mg/kg/hr after surgical renal denervation, 3 hours
  Mean arterial pressure: 150 ± 4
Conscious SHR; DNX: 10 mg/kg/hr after surgical renal denervation, 4 hours
  Mean arterial pressure: 147 ± 4
Conscious SHR; conscious SHR, 5 mg/kg/hr coinfused with bulbocapnine (100 μg/kg/min)
  effect on mean arterial pressure over a four hour period: lowered mean arterial pressure similar to Ex. #859 alone
Conscious SHR; conscious SHR, 10 mg/kg/hr, 5-7 days after surgical renal denervation
  antihypertensive response: prevented the antihypertensive response
Conscious SHR; conscious SHR, continuous infusion 5 mg/kg/hr alone
  effect on mean arterial pressure over a four hour period: antihypertensive
Conscious SHR; infused alone 5 mg/kg/hr, 0 hours
  Mean arterial pressure: 177 ± 6
Conscious SHR; infused alone 5 mg/kg/hr, 1 hour
  Mean arterial pressure: 172 ± 6
Conscious SHR; infused alone 5 mg/kg/hr, 2 hours
  Mean arterial pressure: 170 ± 7
Conscious SHR; infused alone 5 mg/kg/hr, 3 hours
  Mean arterial pressure: 164 ± 7
Conscious SHR; infused alone 5 mg/kg/hr, 4 hours
  Mean arterial pressure: 154 ± 6

## CCCCc1ccc(C(=O)O)nc1 [Fusaric Acid, 5-n-butylpicolinic acid]
Anesthetized dog; [12]
  MAP: 136 mm Hg
  UNa V: 82 μEqlmin
  Δ RBF: 240 mL/min
Anesthetized dog; [13]
  MAP: 148 mm Hg
  UNa V: 13 μEqlmin
  Δ RBF: 315 mL/min
Anesthetized dog; [14]
  effect on mean arterial pressure: no significant effect
  effect on renal blood flow: dose-related increases
  effect on urinary sodium excretion: no significant effect
Anesthetized dog; anesthetized dog, bolus intrarenal injection 0.1 mg/kg
  effect on MAP, RBF and UNaV: no effect on any measure
Anesthetized dog; intrarenal bolus 0.1 mg/kg
  MAP: 136 mm Hg
  UNa V: 21.2 μEq/min
  Δ RBF: 0 mL/min
Anesthetized dog; intrarenal bolus 0.5 mg/kg
  MAP: 136 mm Hg
  UNa V: 23.8 μEq/min
  Δ RBF: +46 ml/min
Anesthetized dog; intrarenal bolus 1.0 mg/kg
  MAP: 138 mm Hg
  UNa V: 21.1 μEq/min
  Δ RBF: +58 ml/min
Anesthetized dog; intrarenal bolus 5.0 mg/kg
  MAP: 140 mm Hg
  UNa V: 34.8 μEq/min
  Δ RBF: +132 ml/min
